Our source for the melting point values is a melting point compilation (Tetko et al.; mined from patent text by program, amines drawn as free bases though some values may be those of a salt).

Bounds are passed on as bounds.

Turning to `COCCOCc1c(CN(C)CC(O)c2ncccn2)sc2c(=O)c(C(=O)NCc3ccc(Cl)cc3)cn(C)c12` (configuration not stated), the melting point (commonly the temperature of the solid-liquid transition) lay in the range of 146 to 148 °C.
In the case of `CCn1ncc2c(ON=C(C)C)c(C(=O)c3ccc(Cl)cc3)cnc21` it was 112 to 113 °C; in that of `N#Cc1ccc(-c2csc(-n3c(=O)oc4ccccc43)n2)cc1`, 244 to 245 °C; in that of `Cc1cccc(-c2c(C)n(C)c(=O)n(C)c2=O)c1`, 137 to 139 °C.
`N#Cc1ccc2c(c1)C(=O)N(C1CCC(=O)NC1=O)C2=O` (configuration not stated) had a melting point above 260 °C.
Compound `Oc1ccc(O)c(F)c1` gave a melting point of 33 to 35 °C.
The value for `COC(=O)C(c1ccc(OCCNC(=O)C2Cc3ccccc3N2S(=O)(=O)c2ccc(-c3cc(C(F)(F)F)ccc3Cl)cc2)cc1)C(C)C` (configuration not stated) was 68 to 75 °C; that for `Cn1cc(CS(C)=O)c(=O)c2ccccc21` (configuration not stated) was 93 to 95 °C.
Take `CN1CCn2c1c(-c1ccccc1)c1ncccc1c2=O`: the melting point is 237 to 240 °C.
Compound `CN(CCN1CCC(Nc2nc3ccccc3n2Cc2ccc(F)cc2)CC1)c1nccs1` returned a melting point of 143 °C.
`CC(C)(C(=O)C=Cc1ccc(Cl)cc1Cl)C1OCCO1` registered a melting point of 92 to 93 °C.
As for `COc1ncc(Cl)cc1Br`, the melting point is 45 to 47.5 °C.
`O=C(OCCc1ccc([N+](=O)[O-])cc1)C1Cc2c(ccc3[nH]ccc23)N1` (configuration not stated) registered a melting point of 192 to 194 °C.
In the case of `CCCCCN(CCC12CC3CC(CC(C3)C1)C2)C(=O)NCCc1cccnc1`, the melting point was 112 to 114 °C.
Turning to `CCOC(=O)c1cc(=O)c2ccc(OS(=O)(=O)c3ccc(C)cc3)c([N+](=O)[O-])c2o1`, the melting point came out at 125 °C.
The compound `Cc1c(C)c2c(c(C)c1OCc1ccccc1)CCC(C)(CC=O)O2` (configuration not stated) yielded a melting point of 70 to 75 °C.
For the compound `CC(C)(N=C=O)c1ccc2cc(C(C)(C)N=C=O)ccc2c1`, the melting point fell in the range of 85.5 to 87 °C.
`O=C(O)CCC(=O)N1CCN(c2ccccn2)CC1`: the melting point fell in the range of 125 to 127 °C.
With `O=C(O)c1cc2c(OC[C@@H](O)CN3CCC(c4ccc5ccccc5c4)CC3)cccc2[nH]1`, the melting point fell in the range of 171 to 173 °C.
On to `CC(C)(C)OC(=O)Cc1n[nH]c(=O)c2ccccc12`, for which the melting point is 164 to 166 °C.
The value for `CCOC(=O)c1cc(-c2ccc(Cl)c(Cl)c2)nn1C` was 122 to 124 °C.
Consider `CCn1c(CO)nc(C(C)C)c1Sc1cc(F)cc(F)c1`, for which the melting point lay in the range of 102 to 104 °C.
Regarding `Nc1nc(-n2cc(C(=O)O)c(=O)c3cc(F)c(NCCCO)c(Cl)c32)c(F)cc1F`, the melting point fell in the range of 136 to 142 °C.
The value for `CCC(C)(C)Nc1c(NCc2ccccn2)c(=O)c1=O` was 192 °C; that for `Cc1nc2c(-c3cccc(C(F)(F)F)c3)cncn2n1` was 114 to 116 °C.
Compound `COC[C@H]1CCCN1C(=O)c1ccc(-c2[nH]nc3c2C(=O)c2c(NC(=O)NN4CCOCC4)cccc2-3)s1` had a melting point of 262 °C.
In the case of `Nc1c([N+](=O)[O-])cnn1-c1c(Cl)cc(C(F)(F)F)c(F)c1Cl`, the melting point amounted to 156 °C.
On to `COP(=O)(Nc1cc(C(C)C)ccc1N1CCOCC1)OC`, for which the melting point lay in the range of 97 to 98 °C.
`Fc1cc(F)c(-c2c(Cl)nc(-n3ccnc3)nc2Cl)c(F)c1`: the melting point is 72 to 74 °C.
In turn, `CCOC(=O)c1ccc(-c2ccc(C(C)O)cc2)cc1` (single isomer, unassigned; (+)) gave a melting point of 74.6 °C.
The compound `CC(C)c1cc(OCCO[Si](C(C)C)(C(C)C)C(C)C)cc2c1C(=O)N(CCl)S2(=O)=O` yielded a melting point of 85 to 86 °C.
Compound `CC(C)(C)Sc1c(-c2ccc(S(C)(=O)=O)cc2)cnn(CC(F)(F)F)c1=O` showed a melting point of 186 to 189 °C.
`COc1ccc(Nc2ccc(Nc3ccnc4cc(-c5ccc(OC)nc5)sc34)cc2)cc1` returned a melting point of 175 to 184 °C.
In the case of `OC[C@H]1C[C@@H](n2cnc3c(N[C@H]4CCN(c5ccc(C(F)(F)F)cc5)C4)ncnc32)[C@H](O)[C@@H]1O` it was 111 to 114 °C.
`NC(=NC(=O)c1nc(Cl)c(N)nc1N)NCCCCCCCCCCCC(=O)Nc1ncc[nH]1` came in with a melting point of 102 to 104 °C.
`N#Cc1c(Cl)nc2n(c1=O)CCS2` showed a melting point of 148 to 150 °C.
In the case of `CCSc1nnc(CO)n1Cc1ccc(N)cc1` it was 145 to 147 °C; in that of `CC1(C)SCC(CO)S1` (configuration not stated), 45 to 50 °C; in that of `O=C1COC2(CCN(CCc3ccccc3)CC2)CN1`, 140 to 141 °C.
In turn, `O=C1C2CCCC2=Nc2ccccc2N1Cc1ccc(Cl)cc1` (configuration not stated) showed a melting point of 155 to 157 °C.
Compound `CN(Cc1cccc(-c2ccc(CC3SC(=O)NC3=O)cc2)c1)C(=O)c1ccc(O)cc1` (configuration not stated) gave a melting point of 110 °C.
As to `O=C(O)CCc1cn(Cc2ccc(OCCn3ncc4ccccc4c3=O)cc2)nc1-c1ccccc1`, the melting point lay in the range of 155 to 156 °C.
In the case of `CCCC1CCC(c2ccc(-c3cc(F)c(C(F)(F)Oc4cc(F)c(C(F)(F)F)c(F)c4)c(F)c3)c(F)c2)OC1` (configuration not stated) it was 95 °C.
In the case of `Cc1cc([N+](=O)[O-])ccc1OC12CC3CC(CC(C3)C1)C2` it was 89.5 to 91 °C; in that of `O=Cc1ccc(-n2ncc3sc4ccccc4c32)cc1`, 261 to 263 °C; in that of `CC(O)/C=C/c1ncn2c1CN(C)C(=O)c1c(Cl)cccc1-2` (configuration not stated), 232 to 233 °C.
In turn, `Cc1ccc2[nH]c(=S)c(C(=O)c3ccc([N+](=O)[O-])cc3)c(O)c2c1` showed a melting point of 247 °C.
The value for `COc1cn(-c2cccnc2)nc(-c2ccnn2-c2ccccc2)c1=O` was 210 to 212 °C; that for `CCCCCCCCCCCCCCCCCCNC(=O)NCCCN` was 116 to 140 °C.
In turn, `O=C(Oc1ccc([N+](=O)[O-])cc1)Oc1ccc2oc3ccccc3c2c1` showed a melting point of 183 to 185 °C.
Regarding `C=CCC(O)(CCCc1ccc(Cl)cc1)c1ccc(OCc2ccc3ccccc3n2)cc1` (configuration not stated), the melting point was in the range of 87 to 88 °C.
Compound `COC(=O)Oc1ccc(C(=O)CBr)c(OC(=O)OC)c1` showed a melting point of 73 to 74 °C.
For `COc1cc(Br)c(N)c(C(=O)/C=C/c2ccc(OC)c(F)c2)c1`, the melting point lay in the range of 123 to 125 °C.
For the compound `OC(Cn1cncn1)(Cn1cnc(-c2ccc(F)cc2)n1)c1ccc(C(F)(F)F)cc1F` (configuration not stated), the melting point fell in the range of 96 to 100 °C.
For the compound `CN1CCN(c2cccc3c2C[C@H](NC(=O)c2ccc(N4CCCCC4)cc2)CO3)CC1`, the melting point was in the range of 178 to 180 °C.
On to `COC(=O)c1cc(-c2ccc(F)cc2)oc1C`, for which the melting point was in the range of 96 to 97 °C.
In the case of `COC(=O)Cn1c(C)cc(Cc2ccsc2)c(NC(=O)OCc2ccccc2)c1=O` it was 127 to 128 °C.
`CC(C)(C)COc1ccc(-n2ncc(C(=O)O)c2Cl)cc1C#N` had a melting point of 212 °C.
`COc1ccc2[nH]c3c(c2c1)C[C@@]1(C)C(=O)N(CCN2CCCC2)C(=O)N1[C@@H]3c1cccc(O)c1` (racemic) displayed a melting point of 252 to 255 °C.
Regarding `O=C(NC(C(=O)NC(CO)COCc1ccccc1)C(Cc1ccccc1)C(=O)O)OCc1ccccc1` (configuration not stated), the melting point was in the range of 100 to 103 °C.
In turn, `CC(C)(CC(=O)c1ccc(Cl)c(Cl)c1)C(=O)O` yielded a melting point of 137 to 138 °C.
The compound `COc1ccc2c(c1)C(=O)C(=Cc1ccncc1)CO2` showed a melting point of 170 to 172 °C.
